Assay results taken from article PMC5394417, “Investigating the molecular mechanism of positive and negative allosteric modulators in the calcium-sensing receptor dimer” (Scientific Reports, 2017).
Where “and” joins values, the source holds several entries; their conditions need not be identical. Equal entries are not always repeated.

Target: T1, HA-L797A CaSR mutant (Rattus norvegicus, UniProt P48442, L797A)
T1 construct: mGluR5 signal peptide (N); expressed in transfected cells; host or cells: HEK293T
T1 sequence (P48442 20-1079 L797A): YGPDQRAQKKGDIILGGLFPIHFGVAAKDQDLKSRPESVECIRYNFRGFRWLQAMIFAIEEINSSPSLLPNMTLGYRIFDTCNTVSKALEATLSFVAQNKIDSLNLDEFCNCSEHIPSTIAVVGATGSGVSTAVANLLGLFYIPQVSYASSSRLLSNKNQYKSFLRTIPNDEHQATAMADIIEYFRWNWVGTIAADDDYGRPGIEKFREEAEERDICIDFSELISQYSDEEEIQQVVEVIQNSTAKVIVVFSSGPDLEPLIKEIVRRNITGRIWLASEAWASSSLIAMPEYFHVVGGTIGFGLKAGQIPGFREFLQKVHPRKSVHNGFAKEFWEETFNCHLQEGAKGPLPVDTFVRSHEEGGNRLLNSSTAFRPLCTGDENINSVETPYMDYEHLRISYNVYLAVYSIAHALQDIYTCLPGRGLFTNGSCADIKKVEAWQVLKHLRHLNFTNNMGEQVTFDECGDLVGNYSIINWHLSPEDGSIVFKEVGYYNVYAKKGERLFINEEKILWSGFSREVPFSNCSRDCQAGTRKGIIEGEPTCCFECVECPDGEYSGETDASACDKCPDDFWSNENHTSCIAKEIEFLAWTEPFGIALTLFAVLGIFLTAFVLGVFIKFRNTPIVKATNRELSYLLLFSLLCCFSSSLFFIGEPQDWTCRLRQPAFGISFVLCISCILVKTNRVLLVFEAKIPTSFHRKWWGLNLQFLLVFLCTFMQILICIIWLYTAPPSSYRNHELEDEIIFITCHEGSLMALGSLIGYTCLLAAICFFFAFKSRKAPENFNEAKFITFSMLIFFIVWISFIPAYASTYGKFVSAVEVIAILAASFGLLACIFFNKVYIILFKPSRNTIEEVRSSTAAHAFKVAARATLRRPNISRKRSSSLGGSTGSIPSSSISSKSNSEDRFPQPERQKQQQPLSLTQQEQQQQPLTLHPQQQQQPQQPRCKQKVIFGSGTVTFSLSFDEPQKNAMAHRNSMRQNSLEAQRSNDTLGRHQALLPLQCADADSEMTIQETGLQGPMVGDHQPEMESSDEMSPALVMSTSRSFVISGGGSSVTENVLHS
Assay: IP-One assay, HEK293T transiently transfected
Format: cell-based

[Ca+2] [Ca^2+]
EC50 (Ca^2+ alone): 11.7 mM | Hill coefficient ± S.E.M. (Ca^2+ alone): 3.22 ± 0.71 | pEC50 ± S.E.M. (Ca^2+ alone): 1.94 ± 0.04 | Max ± S.E.M. (normalized to maximum response of WT CaSR): 25% and 25 ± 3.5%
